Six compounds from publication PMC6326523, “A high-throughput screen to identify novel small molecule inhibitors of the Werner Syndrome Helicase-Nuclease (WRN)” (PLoS ONE, 2019) can be followed below.

Assay [1] concerns the target T1, GST-WRN500-946 helicase fragment (Homo sapiens, UniProt Q14191).
T1 construct: made in house
Briefly: Radiometric helicase assay with GST-WRN500-946 fragment (LOPAC hit validation). The format is biochemical. Conditions: GST-WRN500-946 20 nM; FORKR 0.5 nM; increasing concentrations.

Assay [2] has as its target T2, full-length WRN helicase (Homo sapiens, UniProt Q14191).
T2 construct: Full length recombinant WRN [18], BLM [19], and FANCJ [20] proteins were purified from insect cells; made in house; host or cells: insect cells
Briefly: Radiometric helicase inhibitor assay, full-length WRN unwinding of FORKR DNA substrate.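 As to all read-outs here: WRN preincubated with compound 15 min at room temperature, then unwinding run 15 min at 37 °C with 2 mM ATP, relative to WRN unwinding without compound (100%).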 It is filed as biochemical. To be noted: full-length WRN 1 nM, FORKR 0.5 nM; for remaining activity at 50 µM: 50 μM compound, read-out: % Control WRN Helicase Activity; for IC50: radiometric assay, compound 0-100 μM, read-out: IC50.
Protocol: Fifteen μL of reaction buffer was added to a microcentrifuge tube followed by the addition of 1 μL of selected compounds (0.5–100 μM final concentration) or DMSO. One μL of WRN (full length), RECQ1, FANCJ, BLM or control was added to each reaction and incubated at room temperature for 15 min. Three μL of substrate (0.5 nM FORKR and 2 mM ATP final concentrations) were added to all reactions which were incubated at 37°C for 15 min. Reactions were stopped with the addition of 20 μL of 2X STOP dye containing EDTA, glycerol, bromphenol blue and xylene cyanol. Samples were electrophoresed for 1.5 hr at 200 V on a 12% non-denaturing PAGE gel in 1X TBE Buffer.
The compounds were tested at a single concentration of 50 μM in the radiometric helicase assay with full-length recombinant WRN protein (1 nM) and the FORKR DNA substrate (0.5 nM) as described in the Materials and Methods section.
For each compound, we performed titrations over a wide range of concentrations with a fixed concentration of full-length WRN protein (1 nM), and quantitated unwinding as a percentage of full-length WRN unwinding of the FORKR DNA substrate (0.5 nM) in the absence of compound (Fig 6A and 6B, S3 Fig). […] In addition to determining an IC50 value for each compound, we also conducted helicase assays to determine the reversibility of inhibition by each compound tested. […] The reaction was diluted 100-fold with the addition of DNA substrate (0.5 nM final concentration) and ATP (2 mM final concentration) and unwinding was measured (Fig 7A–7D, S4 Fig). Inhibition was either classified as reversible, partially reversible, minimally reversible, or irreversible based on the ability of helicase activity to recover after dilution of the compound 100-fold.

For assay [3], the target named is T2, full-length WRN helicase. Briefly: Radiometric helicase inhibitor reversibility assay (100-fold dilution). To be noted: WRN 100 nM preincubated at 10-fold IC50, diluted 100-fold; unwinding 0-16 min. It is filed as biochemical. Set-up: key to Reversibility: (-) = irreversible; (+) = minimally reversible; (++) = partially reversible; (+++) = reversible. As for the experimental part:
WRN (full length, 100 nM concentration) was incubated with each small molecule inhibitor at a concentration 10-fold higher than the IC50 for that inhibitor, in a 10 μL reaction at room temperature. 1.5 μL of this reaction was added to 148.5 μL of reaction salts with 2 mM ATP, 0.5 nM FORKR reducing the full length WRN concentration to 1 nM and the drug concentration to 10-fold less than its IC50. Reactions were placed at 37°C and 20 μL of reaction were removed at specific intervals (0–16 min) and quenched with 20 μL of 2X STOP dye containing EDTA, glycerol, bromphenol blue and xylene cyanol. Samples were electrophoresed for 1.5 hr at 200 V on a 12% non-denaturing PAGE gel in 1X TBE Buffer.
Eighteen compounds were selected based on potency of inhibition in both the screening and radiometric assays, and exclusion of compounds with undesired chemical features. For each compound, we performed titrations over a wide range of concentrations with a fixed concentration of full-length WRN protein (1 nM), and quantitated unwinding as a percentage of full-length WRN unwinding of the FORKR DNA substrate (0.5 nM) in the absence of compound (Fig 6A and 6B, S3 Fig). […] In addition to determining an IC50 value for each compound, we also conducted helicase assays to determine the reversibility of inhibition by each compound tested. Details of the assay can be found in the Materials and Methods section, but briefly 100 nM WRN was incubated with each compound at a concentration 10-fold higher than its IC50 value. The reaction was diluted 100-fold with the addition of DNA substrate (0.5 nM final concentration) and ATP (2 mM final concentration) and unwinding was measured (Fig 7A–7D, S4 Fig). Inhibition was either classified as reversible, partially reversible, minimally reversible, or irreversible based on the ability of helicase activity to recover after dilution of the compound 100-fold. Table 2 summarizes the IC50 values and reversibility for each compound and includes IC50 values obtained from the screens for comparison.

The target in assay [4] is T3, GST-WRN500-946 helicase domain fragment (Homo sapiens, UniProt Q14191).
T3 construct: made in house; host or cells: insect cells
T3 sequence (Q14191 500-946): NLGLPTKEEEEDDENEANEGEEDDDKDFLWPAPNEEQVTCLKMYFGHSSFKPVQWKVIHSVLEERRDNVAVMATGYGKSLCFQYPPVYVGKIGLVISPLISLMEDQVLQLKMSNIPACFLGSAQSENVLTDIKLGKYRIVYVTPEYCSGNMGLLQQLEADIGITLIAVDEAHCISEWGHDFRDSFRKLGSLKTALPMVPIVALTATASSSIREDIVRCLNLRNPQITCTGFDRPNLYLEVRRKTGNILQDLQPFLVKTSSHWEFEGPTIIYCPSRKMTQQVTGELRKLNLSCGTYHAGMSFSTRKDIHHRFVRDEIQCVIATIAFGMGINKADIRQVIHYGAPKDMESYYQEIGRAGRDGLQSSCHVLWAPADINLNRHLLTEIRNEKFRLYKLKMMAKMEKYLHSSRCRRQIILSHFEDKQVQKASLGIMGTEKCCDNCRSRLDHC
Nature of the assay: High-throughput fluorometric helicase screen, PubChem AID 651768. The format is biochemical. Conditions: initial qHTS; 20 nM GST-WRN500-946; 100 nM FORKF; NA = Not Active; read-out: IC50 (μM) Assay ID 651768. As for the experimental part:
(§1) The structures of the members of this collection are available in the PubChem portal https://pubchem.ncbi.nlm.nih.gov/. For both the 350,000 small molecule collection and the LOPAC^1280 screens, 3 μL of GST-WRN500-946 or reaction buffer only were dispensed using a solenoid-valve nanoliter dispenser into a black 1536-well plate (Greiner). Twenty three nL of each serially diluted compound (0.08–50 μM for the LOPAC screen and 0.003–114 μM for the larger library screen) or control were added to each well using a Kalypsys pintool equipped with a 1536-pin array. Plates were incubated at room temperature for 15 min, followed by initiation of the reactions via the addition of 1 μL of substrate (100 nM FORKF and 2 mM ATP final concentrations). Plates were transferred to a ViewLux high-throughput CCD imager and fluorescence was measured in kinetic mode using an excitation filter of 525 nm and emission filter of 598 nm.
(§2) Zʹ factor, a measure for assay quality control was calculated using the formula Z′ = 1−(3σS^++3σS^−)∕|μS^+−μS^−| as described previously. In this formula, 3σS^+ represents 3 standard deviations from the mean of positive signals while 3σS^− represents 3 standard deviations from the mean of negative signals. μS^+ and μS^− represent the mean of positive signals and negative signals respectively. Percent activity was derived using in-house software (http://tripod.nih.gov/curvefit/). Dose-response curves were classified as described previously.
(§3) A collection of approximately 350,000 compounds is available for screening which has been assembled from multiple sources to provide diverse chemical scaffolds with known purity, identity and solubility. To perform the high-throughput screen of these compounds, we needed to produce approximately 50 milligrams of recombinant WRN helicase fragment. To accomplish this, we cloned the helicase domain fragment into several plasmids for either insect cell or bacterial expression to optimize expression and yield. We selected expression plasmids for insect cell expression with either a GST or MBP tag (image A in S1 Fig) and purified the protein (image B in S1 Fig). The GST-WRN500-946 fragment isolated from insect cells was used in the high throughput screen with the conditions described in Fig 2C (20 nM GST-WRN500-946, 100 nM FORKF DNA substrate) and a summary of the results can be found on PubChem (National Center for Biotechnology Information. PubChem BioAssay Database; Assay Identifier (AID) = 651768, https://pubchem.ncbi.nlm.nih.gov/bioassay/651768). […] To verify the active compounds, approximately 600 hit molecules were retested in a confirmatory screen also found on PubChem (National Center for Biotechnology Information. PubChem AID = 720497, https://pubchem.ncbi.nlm.nih.gov/bioassay/720497). Of these, a little less than four hundred compounds were confirmed as active compounds.

Assay [5] addresses T3, GST-WRN500-946 helicase domain fragment. Briefly: Confirmatory fluorometric helicase screen, PubChem AID 720497. It is filed as biochemical. To be noted: 20 nM GST-WRN500-946, 100 nM FORKF, NA = Not Active, read-out: IC50 (μM) Assay ID 720497. Here is the method: as §1, §2, §3
In assay [6] the target is T4, WRN helicase domain fragment (Homo sapiens, UniProt Q14191).
T4 construct: GST (N); made in house
T4 sequence (Q14191 500-946): as above
Briefly: WRN-hel-f2 protocol qHTS confirmatory (15 compound confirmatory assay). It is filed as biochemical. Conditions: NA = Not Active. As for the experimental part: as §1
On the technique in general: In qHTS, concentration-response curves come from the screen itself.

The test system of another assay is HeLa 1.2.11 cells. Briefly: HeLa cell proliferation assay (WST-1). It is filed as cell-based, human. To be noted: 50 μM, 3-day time course. As for the experimental part:
WRN inhibitors were diluted in DMSO to a concentration 100-fold higher than their final concentrations. U2-OS cells in culture were counted, spun down and resuspended to 35,000 cells/mL in DMEM with 10% FBS and Pen/Strep antibiotic. For each cell condition, 15 μL of DMSO or inhibitor was added to 1.5 ml of U2-OS cells in DMEM or DMEM alone. One hundred μL of each cell condition was plated in triplicate on each of four 96-well plates representing days 0–3. Ten μL of WST-1 cell proliferation reagent (Roche) was added to the day 0 plate and readings were taken 2 hr later using a plate reader set to 450 nm. WST-1 cell proliferation reagent was added to plates on days 1–3 and readings were taken after 2 hr incubation. Percent cell proliferation was normalized to cells in the presence of DMSO with the background OD450 of DMEM with each drug subtracted out. […]
Fig 9 Effects of WRN helicase inhibitors on cancer cell proliferation. (A) Cell proliferation of HeLa 1.2.11 cells treated with 50 μM NCGC00029283-03, NCGC00063279-03, NCGC00357377-01 and NSC 617145 (positive control) or vehicle (DMSO) on Day 0 and Day 3 as measured using the WST-1 cell proliferation reagent. […]
Background: Tetrazolium assays rely on reduction of a dye to a coloured formazan, in cell work by metabolically active cells.

T2 sequence (Q14191 whole entry): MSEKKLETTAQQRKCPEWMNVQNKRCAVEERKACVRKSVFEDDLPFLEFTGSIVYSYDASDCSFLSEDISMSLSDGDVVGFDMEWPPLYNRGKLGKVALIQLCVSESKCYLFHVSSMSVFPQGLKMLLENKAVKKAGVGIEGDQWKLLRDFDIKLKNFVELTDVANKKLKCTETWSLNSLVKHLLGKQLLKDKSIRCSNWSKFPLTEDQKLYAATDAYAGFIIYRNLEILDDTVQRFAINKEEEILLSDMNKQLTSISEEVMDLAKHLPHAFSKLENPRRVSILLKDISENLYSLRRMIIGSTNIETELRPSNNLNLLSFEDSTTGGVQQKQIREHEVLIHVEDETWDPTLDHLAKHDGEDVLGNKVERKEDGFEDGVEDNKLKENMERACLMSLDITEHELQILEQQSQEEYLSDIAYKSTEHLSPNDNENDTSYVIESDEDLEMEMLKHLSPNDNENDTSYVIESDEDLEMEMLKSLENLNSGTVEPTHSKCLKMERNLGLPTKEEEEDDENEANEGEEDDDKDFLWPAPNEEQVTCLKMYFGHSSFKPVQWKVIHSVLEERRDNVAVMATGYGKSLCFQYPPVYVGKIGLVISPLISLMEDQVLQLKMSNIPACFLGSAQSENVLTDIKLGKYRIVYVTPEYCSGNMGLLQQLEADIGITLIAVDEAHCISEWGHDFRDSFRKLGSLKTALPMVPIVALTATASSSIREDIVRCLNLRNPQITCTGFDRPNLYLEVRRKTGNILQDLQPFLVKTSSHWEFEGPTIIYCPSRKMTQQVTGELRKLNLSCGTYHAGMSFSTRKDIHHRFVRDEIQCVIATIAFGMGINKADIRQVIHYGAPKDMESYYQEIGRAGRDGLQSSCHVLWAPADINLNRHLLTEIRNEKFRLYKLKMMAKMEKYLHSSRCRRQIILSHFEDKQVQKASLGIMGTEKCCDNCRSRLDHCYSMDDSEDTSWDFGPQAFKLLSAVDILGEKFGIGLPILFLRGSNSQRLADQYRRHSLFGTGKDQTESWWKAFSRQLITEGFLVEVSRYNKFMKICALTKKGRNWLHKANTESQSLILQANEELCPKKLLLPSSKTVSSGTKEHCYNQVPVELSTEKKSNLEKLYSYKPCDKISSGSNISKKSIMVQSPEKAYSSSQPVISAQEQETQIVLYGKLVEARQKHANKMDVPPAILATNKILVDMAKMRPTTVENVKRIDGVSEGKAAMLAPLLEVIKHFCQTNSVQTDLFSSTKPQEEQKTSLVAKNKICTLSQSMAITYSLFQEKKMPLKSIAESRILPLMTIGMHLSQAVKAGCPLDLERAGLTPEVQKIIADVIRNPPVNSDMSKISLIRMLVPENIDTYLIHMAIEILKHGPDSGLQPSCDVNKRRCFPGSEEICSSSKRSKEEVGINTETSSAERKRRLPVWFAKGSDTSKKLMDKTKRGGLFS
T1 sequence (Q14191 500-946): as the sequence (Q14191 500-946) above

`COc1cc2nc(N3CCCN(C)CC3)nc(NC3CCN(Cc4ccccc4)CC3)c2cc1OC` [NCGC00185850-03]: in assay [1], the “Inhibition of GST-WRN500-946 unwinding of radiolabeled FORKR” value is on record as “inhibition”.

In the case of `N#CSc1ccc2oc(C3=NCCN3)cc2c1` [NCGC00015168-04], in assay [1], the “Inhibition of GST-WRN500-946 unwinding of radiolabeled FORKR” value is “inhibition”.

Broadly, the IC50 is the midpoint of a concentration-inhibition curve. For the compound `O=c1cc(N2CCNCC2)nc2sc(-c3ccncc3)nn12` [NCGC00183602-01], the remaining activity at 50 µM at full-length WRN helicase [2] is 0%. For the same compound, the IC50 was found to be 5 µM on full-length WRN helicase [2], 7.5 µM in assay [4], 6.1 µM in assay [5] and 6 µM in assay [6]. In addition, the Reversibility result at full-length WRN helicase [3] is recorded as “-”.

Take `O=C(c1cccc(-n2cccc2)c1)N1CCN(S(=O)(=O)c2ccccc2)CC1` [MLS001139594-03]: the remaining activity at 50 µM at full-length WRN helicase [2] was 4%. Also, the IC50 at full-length WRN helicase [2] is 10 µM; in assay [4] it was 4.7 µM; in assay [5], 4.3 µM; in assay [6] it was 0.35 µM. In addition, the Reversibility result on full-length WRN helicase [3] is recorded as “-”.

As to `CC(C)(CN1C(=O)C(Cl)=C(Cl)C1=O)CN1C(=O)C(Cl)=C(Cl)C1=O` [NSC 617145, reference compound], in the assay on HeLa 1.2.11 cells, the “Effect on HeLa 1.2.11 cell proliferation” value was “very potent inhibition”.

As to `CCOc1ccc(-c2nc(SCC(=O)Nc3ccc(C)c(C)c3)n3[nH]c(=O)cc3n2)cc1` [NCGC00128865-02], on full-length WRN helicase [2], the remaining activity at 50 µM stood at 20%. The IC50 on full-length WRN helicase [2] stood at 10 µM; in assay [4] it was 21.1 µM; in assay [5] it was 15.2 µM; in assay [6], 1.8 µM. The Reversibility result on full-length WRN helicase [3] is “++”.
